{"source": "paper PMC8966651", "about": "“PKPD Modeling of the Inoculum Effect of Acinetobacter baumannii on Polymyxin B in vivo” (Frontiers in Pharmacology, 2022)", "key": {"A. baumannii (CS01)": {"tested_on": "A. baumannii (CS01)", "experiment": "In vivo PKPD model of PMB bactericidal effect and inoculum effect", "design": "species or system Acinetobacter baumannii", "settings": "for mean IK-HL (initial killing half-life): mean over PMB concentrations; for kslope (kill rate constant due to PMB): model predicted", "description": "A PKPD model was developed in two steps to quantify the exposure-effect relationship of PMB in infected mice. First, time courses of total and unbound PMB concentrations were modeled and then, PK parameters were fixed during development of the PD part of the PKPD model.\nThe structural model for the bacterial population included one compartment representing drug-susceptible growing bacteria. A logistic function was used to model the self-limiting growth observed in vivo: dB/dt= knet×(1−B/Bmax)×B (1) Where, B (CFU/thigh) is the drug-susceptible bacterial population, knet (h^−1) is the apparent (net) growth rate constant and Bmax (CFU/thigh) the maximum bacterial count reached in the tissue. The residual error was additive on a log10 scale for bacterial counts (log10 CFU/thigh).\nPredicted unbound plasma concentrations were linked to the bacterial sub-model using a mathematical function to characterize PMB antimicrobial effect (kPMB) such as: dB/dt= knet×(1−B/Bmax)×B − kPMB×B (2) Where multiple functions (linear, power, basic Emax or a sigmoidal Emax function) for kPMB were tested.\nEmpirical mathematical functions (i.e. linear, exponential and power) describing the relationship between kPMB and inoculum size were tested as a way to include the impact of inoculum size on PMB bactericidal activity.”\nModel selection was based on objective function value (OFV) and goodness of fit (GOF) plots. When two models were nested, a decrease in OFV of at least 3.84 (chi square 1df p = 0.05) was needed to select the most complex model. Visual predictive checks (VPCs) based on 1,000 simulations were drawn after stratification on the PMB dose and the starting inoculum to evaluate the predictive performance of the model and were taken into account for model selection. Data below the LOQ were taken into account during parameter estimation by applying Beal’s M3 method ([Beal, 2001]). Parameter estimation was performed using NONMEM software (ICON, Dublin, Ireland) version 7.4.2 using the LAPLACIAN algorithm. Uncertainty around population parameters was estimated using the sampling importance resampling (SIR) technique ([Dosne et al., 2016]).\nTo evaluate the impact of outliers on parameter estimates and model-based inferences, a sensitivity analysis was performed. Briefly, model estimation was performed with the complete dataset and with a reduced dataset excluding outliers. Parameter estimates were compared and simulations of expected bacterial counts for all tested experimental conditions (i.e. all inocula and dosing regimens) were performed with the two parameter estimate sets.\nThe time course of bacterial counts was adequately described by the model depicted on Figure 1. VPCs of the final model are shown on Figure 3 and GOF plots on Supplementary Figure S4. PMB bactericidal effect (kPMB) was best described by a power function: kPMB = kslope × Cuγ (5) Where kslope corresponds to the kill rate constant due to PMB (L/mg.h), Cu the unbound PMB concentration (mg/L) and γ , the power parameter for PMB effect.\nThe inoculum effect was incorporated in the model as a decrease of kslope with increasing theoretical starting inoculum using a linear function: kslope=kslope,med +kinoc×(starting inoculum−6) (6) Where kslope,med is the kill rate constant for a theoretical starting inoculum of 6 log10 CFU/thigh corresponding to the median of the starting inoculum tested in the present study (5, 6 or 7 log10 CFU/thigh) and kinoc is the constant describing the inoculum effect on kslope."}, "A. baumannii": {"tested_on": "A. baumannii", "settings": "ref Akrong et al., 2021, cited from earlier work; for increase of in vitro IK-HL: starting inoculum from 10^5 to 10^7 CFU/ml", "description": "High bacterial counts may alter antibiotherapy success due to an inoculum effect (IE) ([Chastre and Fagon, 2002]; [Koenig and Truwit, 2006]; [Kalanuria et al., 2014]), corresponding to a reduction of the antibiotic activity as bacterial count increases ([Harada et al., 2014]; [Lenhard and Bulman, 2019]). This phenomenon has been described in vitro for ß-lactam antibiotics used against ß-lactamases-producing bacteria such as Escherichia coli and Klebsiella pneumoniae ([Bedenić et al., 2001]; [Harada et al., 2014]; [Smith and Kirby, 2018]; [Lenhard and Bulman, 2019]). It has also been reported i ... || An innovative aspect of this study was the refinement of a PKPD model, based on the model developed after in vitro TK experiments conducted with A. baumannii and PMB ([Akrong et al., 2021]). […] The different growth behavior between in vitro and in vivo has been associated in literature ... || In both in vitro and in vivo PKPD models, a decrease in PMB killing effect was related to the baseline inoculum and was modeled either as a decrease of the in vivo PMB killing rate constant (kslope) or as an increase of the in vitro half-maximal effective concentration of PMB (EC50), making PMB IE difficult to compare between in vitro and in vivo. In vivo IK-HL were derived from Equation 5 for each starting inoculum and various PMB concentrations to better illustrate the consequences of IE on PMB activity (Table 3)."}, "[1]": {"settings": "ultracentrifugation, ref Landersdorfer et al., 2018, cited from earlier work", "description": "This discrepancy may be explained by differences in methodology. We used ultra-filtration after correction for non-specific adsorption on membranes to determine unbound fraction individually in infected mice, whereas the previous study used ultracentrifugation and pooled plasma sampled drawn from infected mi ..."}}, "note": "Counter-ions that a name gives are not always drawn. Like-named read-outs stand apart in the source and are kept apart here. Bridge positions count the residues as written; N and C are the ends. Square brackets hold non-standard residues; d marks the D form. Peptide text beside a SMILES is read from it. * marks the point of attachment. X1 = CC[C@H](C)CCCCC(=O)*; Dab = NCC[C@H](N)C(=O)O"}
{"smiles": "CC[C@H](C)CCCCC(=O)N[C@@H](CCN)C(=O)N[C@H](C(=O)N[C@@H](CCN)C(=O)N[C@H]1CCNC(=O)[C@H]([C@@H](C)O)NC(=O)[C@H](CCN)NC(=O)[C@H](CCN)NC(=O)[C@H](CC(C)C)NC(=O)[C@@H](Cc2ccccc2)NC(=O)[C@H](CCN)NC1=O)[C@@H](C)O", "note": "[PMB, Polymyxin B sulfate] (X1-[Dab]T[Dab][Dab][Dab][dF]L[Dab][Dab]T; lactam 4-C)", "values": [{"measurement": "mean IK-HL higher at 10^7 CFU/thigh compared with 10^5 CFU/thigh inoculum", "setting": "A. baumannii (CS01); in vivo", "result": 48, "unit": "%"}, {"measurement": "mean IK-HL (initial killing half-life)", "setting": "A. baumannii (CS01); in vivo, inoculum 10^5 CFU/thigh", "result": 32.4, "unit": "min"}, {"measurement": "mean IK-HL (initial killing half-life)", "setting": "A. baumannii (CS01); in vivo, inoculum 10^7 CFU/thigh", "result": 48, "unit": "min"}, {"measurement": "kslope (kill rate constant due to PMB)", "setting": "A. baumannii (CS01); starting inoculum 5 log10 CFU/thigh", "result": 19800, "unit": "µL/min/mg"}, {"measurement": "kslope (kill rate constant due to PMB)", "setting": "A. baumannii (CS01); starting inoculum 7 log10 CFU/thigh", "result": 13500, "unit": "µL/min/mg"}, {"measurement": "decrease in the in vivo PMB bactericidal effect", "setting": "A. baumannii (CS01); starting inoculum increases from 10^5 to 10^7 CFU/thigh", "result": 32, "unit": "%"}, {"measurement": "change of kslope", "setting": "A. baumannii (CS01); starting inoculum increasing from 5 to 7 log10 CFU/thigh", "result": "−32", "unit": "%"}, {"measurement": "Model derived initial killing half-life", "setting": "A. baumannii (CS01); unbound PMB 0.5 mg/L, inoculum 10^5 CFU/thigh", "result": 39, "unit": "min"}, {"measurement": "Model derived initial killing half-life", "setting": "A. baumannii (CS01); unbound PMB 0.5 mg/L, inoculum 10^6 CFU/thigh", "result": 47, "unit": "min"}, {"measurement": "Model derived initial killing half-life", "setting": "A. baumannii (CS01); unbound PMB 0.5 mg/L, inoculum 10^7 CFU/thigh", "result": 58, "unit": "min"}, {"measurement": "Model derived initial killing half-life", "setting": "A. baumannii (CS01); unbound PMB 1 mg/L, inoculum 10^5 CFU/thigh", "result": 35, "unit": "min"}, {"measurement": "Model derived initial killing half-life", "setting": "A. baumannii (CS01); unbound PMB 1 mg/L, inoculum 10^6 CFU/thigh", "result": 42, "unit": "min"}, {"measurement": "Model derived initial killing half-life", "setting": "A. baumannii (CS01); unbound PMB 1 mg/L, inoculum 10^7 CFU/thigh", "result": 52, "unit": "min"}, {"measurement": "Model derived initial killing half-life", "setting": "A. baumannii (CS01); unbound PMB 2 mg/L, inoculum 10^5 CFU/thigh", "result": 31, "unit": "min"}, {"measurement": "Model derived initial killing half-life", "setting": "A. baumannii (CS01); unbound PMB 2 mg/L, inoculum 10^6 CFU/thigh", "result": 37, "unit": "min"}, {"measurement": "Model derived initial killing half-life", "setting": "A. baumannii (CS01); unbound PMB 2 mg/L, inoculum 10^7 CFU/thigh", "result": 46, "unit": "min"}, {"measurement": "Model derived initial killing half-life", "setting": "A. baumannii (CS01); unbound PMB 3 mg/L, inoculum 10^5 CFU/thigh", "result": 29, "unit": "min"}, {"measurement": "Model derived initial killing half-life", "setting": "A. baumannii (CS01); unbound PMB 3 mg/L, inoculum 10^6 CFU/thigh", "result": 35, "unit": "min"}, {"measurement": "Model derived initial killing half-life", "setting": "A. baumannii (CS01); unbound PMB 3 mg/L, inoculum 10^7 CFU/thigh", "result": 43, "unit": "min"}, {"measurement": "Model derived initial killing half-life", "setting": "A. baumannii (CS01); unbound PMB 4 mg/L, inoculum 10^5 CFU/thigh", "result": 28, "unit": "min"}, {"measurement": "Model derived initial killing half-life", "setting": "A. baumannii (CS01); unbound PMB 4 mg/L, inoculum 10^6 CFU/thigh", "result": 33, "unit": "min"}, {"measurement": "Model derived initial killing half-life", "setting": "A. baumannii (CS01); unbound PMB 4 mg/L, inoculum 10^7 CFU/thigh", "result": 41, "unit": "min"}, {"measurement": "in vitro IK-HL", "setting": "A. baumannii; PMB 0.25 mg/L, starting inoculum 10^5 CFU/ml", "result": 10, "unit": "min"}, {"measurement": "in vitro IK-HL", "setting": "A. baumannii; PMB 0.25 mg/L, starting inoculum 10^7 CFU/ml", "result": 24, "unit": "min"}, {"measurement": "increase of in vitro IK-HL", "setting": "A. baumannii; PMB 0.25 mg/L", "result": 140, "unit": "%"}, {"measurement": "in vitro IK-HL", "setting": "A. baumannii; PMB 4 mg/L, starting inoculum 10^5 CFU/ml", "result": 5, "unit": "min"}, {"measurement": "in vitro IK-HL", "setting": "A. baumannii; PMB 4 mg/L, starting inoculum 10^7 CFU/ml", "result": 8, "unit": "min"}, {"measurement": "increase of in vitro IK-HL", "setting": "A. baumannii; PMB 4 mg/L", "result": 60, "unit": "%"}, {"measurement": "increase of the PMB concentration to reach 50% of maximal effect (EC50)", "setting": "A. baumannii; initial inoculum increased from 10^5 to 10^8 CFU/ml, static time-kill", "result": 17, "unit": "fold"}, {"measurement": "plasma protein binding", "setting": "[1]; mouse plasma, pooled plasma spiked with PMB", "result": "~90", "unit": "%"}, {"measurement": "unbound fraction", "setting": "[1]; pooled plasma from infected mice spiked with PMB", "result": 0.086}]}
